Laboratory results reported in PubChem BioAssay AID256 (DTP/NCI, 2004).
Values joined by “and” are separate entries in the source; they are usually repeats but may differ in a detail not shown here. Equal entries are not always repeated. Inconclusive results and toxic doses are left out. The calls were made as follows: active = survival T/C of 150% or more; inactive = T/C below 125% in these data.

Tested on: CD2F1 mice, L1210 leukemia ip, survival T/C
Experiment: NCI In Vivo Anticancer Drug Screen. Data for tumor model L1210 Leukemia (intraperitoneal) in CD2F1 (CDF1) mice
Conditions: higher = longer survival
Summary of the method: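 Read-out first: treated-group measurement over vehicle-control measurement, expressed as a ratio. Animals bore a transplanted tumor line and were dosed with compound or vehicle.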

[1] = endpoint: mean survival time, dose: 6.25 mg/kg/injection, schedule: Q04DX003 (ip), vehicle: saline
[2] = endpoint: mean survival time, dose: 12.5 mg/kg/injection, schedule: Q04DX003 (ip), vehicle: saline
[3] = endpoint: mean survival time, dose: 25.0 mg/kg/injection, schedule: Q04DX003 (ip), vehicle: saline
[4] = endpoint: mean survival time, dose: 50.0 mg/kg/injection, schedule: Q04DX003 (ip), vehicle: saline with Tween-80
[5] = endpoint: mean survival time, dose: 100.0 mg/kg/injection, schedule: Q01DX009 (ip), vehicle: saline with Tween-80
[6] = endpoint: mean survival time, dose: 200.0 mg/kg/injection, schedule: Q01DX009 (ip), vehicle: saline with Tween-80
[7] = endpoint: mean survival time, dose: 400.0 mg/kg/injection, schedule: Q01DX009 (ip), vehicle: saline with Tween-80

Measured: T/C

Cn1c(=O)c2c(ncn2C)n(C)c1=O.[Cl][Pt]([Cl])[Cl]
inactive: endpoint: mean survival time, dose: 3.13 mg/kg/injection, schedule: Q04DX003 (ip), vehicle: saline 112 % of control | endpoint: mean survival time, dose: 3.13 mg/kg/injection, schedule: Q04DX003 (ip), vehicle: water 98 % of control | [1] 104 % of control | endpoint: mean survival time, dose: 6.25 mg/kg/injection, schedule: Q04DX003 (ip), vehicle: water 95 % of control | [2] 106 % of control | endpoint: mean survival time, dose: 12.5 mg/kg/injection, schedule: Q04DX003 (ip), vehicle: water 104 % of control | [3] 102 % of control | endpoint: mean survival time, dose: 25.0 mg/kg/injection, schedule: Q04DX003 (ip), vehicle: water 102 % of control | endpoint: mean survival time, dose: 50.0 mg/kg/injection, schedule: Q04DX003 (ip), vehicle: saline 106 % of control | endpoint: mean survival time, dose: 50.0 mg/kg/injection, schedule: Q04DX003 (ip), vehicle: water 104 % of control | endpoint: mean survival time, dose: 100.0 mg/kg/injection, schedule: Q04DX003 (ip), vehicle: saline 112 % of control | endpoint: mean survival time, dose: 100.0 mg/kg/injection, schedule: Q04DX003 (ip), vehicle: water 118 % of control | endpoint: mean survival time, dose: 200.0 mg/kg/injection, schedule: Q04DX003 (ip), vehicle: saline 111 % of control

Cn1c2c(c3ccccc31)C(=O)CC2(C)C
inactive: [4] 103 % of control | endpoint: mean survival time, dose: 100.0 mg/kg/injection, schedule: Q01DX001 (ip), vehicle: saline with Tween-80 93 % of control | endpoint: mean survival time, dose: 100.0 mg/kg/injection, schedule: Q04DX003 (ip), vehicle: saline with Tween-80 89 % of control | endpoint: mean survival time, dose: 200.0 mg/kg/injection, schedule: Q01DX001 (ip), vehicle: saline with Tween-80 98 % of control

NC1CCCCC1.[O]=[Cr](=[O])([OH])[OH]
inactive: [1] 103 % of control | [2] 98 % of control | [3] 110 % of control

N=C1CCCS1
inactive: endpoint: median survival time, dose: 25.0 mg/kg/injection, schedule: Q01DX009 (ip), vehicle: saline 112 % of control | endpoint: median survival time, dose: 50.0 mg/kg/injection, schedule: Q01DX009 (ip), vehicle: saline 116 % of control | endpoint: median survival time, dose: 100.0 mg/kg/injection, schedule: Q01DX009 (ip), vehicle: saline 122 % of control

O=C(N/N=C/c1cccc(Cl)c1)c1ccccc1
inactive: [5] 94 % of control | endpoint: mean survival time, dose: 100.0 mg/kg/injection, schedule: Q04DX003 (ip), vehicle: Klucel (hydroxypropylcellulose) (HPC) 96 % of control | [6] 94 % of control | endpoint: mean survival time, dose: 200.0 mg/kg/injection, schedule: Q04DX003 (ip), vehicle: Klucel (hydroxypropylcellulose) (HPC) 94 % of control | [7] 96 % of control | endpoint: mean survival time, dose: 400.0 mg/kg/injection, schedule: Q04DX003 (ip), vehicle: Klucel (hydroxypropylcellulose) (HPC) 94 % of control

CCOC(=O)CC1CCCCC1CC(=O)OCC (stereo not given)
inactive: endpoint: mean survival time, dose: 37.5 mg/kg/injection, schedule: Q01DX009 (ip), vehicle: saline 95 % of control | endpoint: mean survival time, dose: 75.0 mg/kg/injection, schedule: Q01DX009 (ip), vehicle: saline 98 % of control | endpoint: mean survival time, dose: 75.0 mg/kg/injection, schedule: Q04DX003 (ip), vehicle: saline 97 % of control | endpoint: mean survival time, dose: 150.0 mg/kg/injection, schedule: Q01DX009 (ip), vehicle: saline 100 % of control | endpoint: mean survival time, dose: 150.0 mg/kg/injection, schedule: Q04DX003 (ip), vehicle: saline 103 % of control | endpoint: mean survival time, dose: 300.0 mg/kg/injection, schedule: Q04DX003 (ip), vehicle: saline 101 % of control

CCC1(c2ccccc2)C(=O)N(CBr)C(=O)N(CBr)C1=O
inactive: endpoint: mean survival time, dose: 12.5 mg/kg/injection, schedule: Q01DX009 (ip), vehicle: saline with Tween-80 98 % of control | endpoint: mean survival time, dose: 25.0 mg/kg/injection, schedule: Q01DX009 (ip), vehicle: saline with Tween-80 93 % of control | endpoint: mean survival time, dose: 50.0 mg/kg/injection, schedule: Q01DX009 (ip), vehicle: saline with Tween-80 96 % of control

Cc1cc(Nc2ccc3c(c2)OCO3)c2cc3c(cc2n1)OCO3
inactive: endpoint: median survival time, dose: 25.0 mg/kg/injection, schedule: Q01DX009 (ip), vehicle: Klucel (hydroxypropylcellulose) (HPC) 105 % of control | endpoint: median survival time, dose: 50.0 mg/kg/injection, schedule: Q01DX009 (ip), vehicle: Klucel (hydroxypropylcellulose) (HPC) 121 % of control | endpoint: median survival time, dose: 100.0 mg/kg/injection, schedule: Q01DX009 (ip), vehicle: Klucel (hydroxypropylcellulose) (HPC) 94 % of control

O=C1OC2C(Cl)CC(Cl)CC2C=C1c1cccc([N+](=O)[O-])c1 (stereo not given)
inactive: [5] 90 % of control | endpoint: mean survival time, dose: 100.0 mg/kg/injection, schedule: Q04DX002 (ip), vehicle: saline with Tween-80 90 % of control | [6] 94 % of control | endpoint: mean survival time, dose: 200.0 mg/kg/injection, schedule: Q04DX002 (ip), vehicle: saline with Tween-80 90 % of control | [7] 105 % of control | endpoint: mean survival time, dose: 400.0 mg/kg/injection, schedule: Q04DX002 (ip), vehicle: saline with Tween-80 94 % of control

[Br][Pt+2][Br].[NH-]C(CC([NH-])c1ccccc1)c1ccccc1 (stereo not given)
inactive: endpoint: mean survival time, dose: 12.5 mg/kg/injection, schedule: Q04DX003 (ip), vehicle: saline with Tween-80 101 % of control and 107 % of control and 112 % of control | endpoint: mean survival time, dose: 25.0 mg/kg/injection, schedule: Q04DX003 (ip), vehicle: saline with Tween-80 102 % of control and 89 % of control | [4] 91 % of control

O=NC1C2CCC(C2)C1Cl (stereo not given)
inactive: endpoint: mean survival time, dose: 5.0 mg/kg/injection, schedule: Q01DX001 (ip), vehicle: saline 98 % of control | endpoint: mean survival time, dose: 10.0 mg/kg/injection, schedule: Q01DX001 (ip), vehicle: saline 97 % of control | endpoint: mean survival time, dose: 20.0 mg/kg/injection, schedule: Q01DX001 (ip), vehicle: saline 95 % of control

CCC1(O)C(=O)OCc2c1cc1n(c2=O)Cc2cc3ccc(C(=O)O)cc3nc2-1 (stereo not given)
inactive: endpoint: median survival time, dose: 10.0 mg/kg/injection, schedule: Q04DX002 (ip), vehicle: saline with Tween-80 108 % of control | endpoint: median survival time, dose: 10.0 mg/kg/injection, schedule: Q04DX002 (ip), vehicle: water 100 % of control | endpoint: median survival time, dose: 20.0 mg/kg/injection, schedule: Q04DX002 (ip), vehicle: saline with Tween-80 101 % of control | endpoint: median survival time, dose: 20.0 mg/kg/injection, schedule: Q04DX002 (ip), vehicle: water 109 % of control | endpoint: median survival time, dose: 40.0 mg/kg/injection, schedule: Q04DX002 (ip), vehicle: saline with Tween-80 108 % of control | endpoint: median survival time, dose: 40.0 mg/kg/injection, schedule: Q04DX002 (ip), vehicle: water 106 % of control | endpoint: median survival time, dose: 80.0 mg/kg/injection, schedule: Q04DX002 (ip), vehicle: saline with Tween-80 108 % of control | endpoint: median survival time, dose: 80.0 mg/kg/injection, schedule: Q04DX002 (ip), vehicle: water 106 % of control

NC(=S)N/N=C/c1ccccc1N
inactive: endpoint: mean survival time, dose: 100.0 mg/kg/injection, schedule: Q04DX003 (ip), vehicle: acetone 103 % of control | endpoint: mean survival time, dose: 200.0 mg/kg/injection, schedule: Q04DX003 (ip), vehicle: acetone 97 % of control | endpoint: mean survival time, dose: 400.0 mg/kg/injection, schedule: Q04DX003 (ip), vehicle: acetone 104 % of control

CC(C)(CO)C(O)C(=O)NCCS(=O)c1ccc(F)cc1 (stereo not given)
inactive: endpoint: mean survival time, dose: 100.0 mg/kg/injection, schedule: Q04DX003 (ip), vehicle: other 100 % of control | endpoint: mean survival time, dose: 200.0 mg/kg/injection, schedule: Q04DX003 (ip), vehicle: other 96 % of control | endpoint: mean survival time, dose: 400.0 mg/kg/injection, schedule: Q04DX003 (ip), vehicle: other 100 % of control

CC(/C=N/N=C(N)N)=N\N=C(N)N
inactive: endpoint: mean survival time, dose: 12.5 mg/kg/injection, schedule: Q04DX003 (ip), vehicle: Klucel (hydroxypropylcellulose) (HPC) 97 % of control | endpoint: mean survival time, dose: 25.0 mg/kg/injection, schedule: Q04DX003 (ip), vehicle: Klucel (hydroxypropylcellulose) (HPC) 98 % of control | endpoint: mean survival time, dose: 50.0 mg/kg/injection, schedule: Q04DX003 (ip), vehicle: Klucel (hydroxypropylcellulose) (HPC) 110 % of control | endpoint: mean survival time, dose: 53.6 mg/kg/injection, schedule: Q03HX024 (ip), vehicle: clinical formulation 92 % of control | endpoint: median survival time, dose: 120.0 mg/kg/injection, schedule: Q01DX009 (ip), vehicle: saline 87 % of control

Cc1cccc[n+]1CCC(N)=O
inactive: [1] 96 % of control | [2] 88 % of control | [3] 91 % of control
